Values joined by “and” are separate entries in the source; they are usually repeats but may differ in a detail not shown here. Identical values can stand only once.
How the values were obtained:
dengue virus type 2 [1] = experiment: Functional assay to measure dose dependent changes in antiviral-drug inhibitory efficacy against Dengue virus type 2 New Guinea C in Vero E6 miRFP670 cells (cotreated with P-gp inhibitor, CP100356). Cells are treated with antiviral candidates that are serially diluted, following infection, cells are fixed. EC50 is reported via analysis of fluorescence intensity using high-content imager. The …; type: organism-based, Chlorocebus sabaeus, Vero C1008; settings: for EC90: P-gp concentration 500 nM, P-gp inhibitor CP100356
Zika virus [2] = experiment: (§1) Functional CPE-based assay to measure dose dependent changes in antiviral-drug inhibitory efficacy against Zika virus MR766 in Vero E6 miRFP670 cells (cotreated with P-gp inhibitor, CP100356). Cells are treated with antiviral candidates that are serially diluted. EC50 is reported via analysis of MTS assay as a readout of CPE. The assay has been performed by KU Leuven.; type: organism-based, Chlorocebus sabaeus, Vero C1008; settings: Zika virus, Vero C1008
dengue virus type 2 [3] = experiment: (§2) Functional immunofluorescence assay to measure dose dependent changes in antiviral-drug inhibitory efficacy against Dengue virus type 2 Thailand/16681/84 in Vero E6/TMPRSS2 cells. Cells are treated with antiviral candidates that are serially diluted, following infection, cells are fixed. EC50 is reported via analysis of immunofluorescence staining. The assay has been performed by Icahn School of Medicine at Mount Sinai.; type: organism-based, Chlorocebus sabaeus
dengue virus type 2 [4] = experiment: Functional CPE-based assay to measure dose dependent changes in antiviral-drug inhibitory efficacy against Dengue virus type 2 New Guinea C in Huh7 cells. Cells are treated with antiviral candidates that are serially diluted. EC50 is reported via analysis of MTT/MTS assay as a readout of CPE. The assay has been performed by National Institute of Allergy and Infectious Diseases.; type: organism-based, Homo sapiens; settings: Huh-7
Zika virus [5] = experiment: as §2, with “Zika” for “Dengue”, “PRVABC59” for “type 2 Thailand/16681/84”; type: organism-based, Chlorocebus sabaeus; settings: VeroE6/TMPRSS2
Zika virus [6] = experiment: as §1, with “cells.” for “cells (cotreated with P-gp inhibitor, CP100356).”; type: organism-based, Chlorocebus sabaeus, Vero C1008; settings: Zika virus
Zika virus [7] = experiment: EC50 is reported via analysis of immunofluorescence staining. The assay has been performed by Icahn School of Medicine at Mount Sinai.; type: functional, organism-based, Chlorocebus sabaeus, VeroE6/TMPRSS2; settings: Baseline response 0 %, Maximum response 100 %, P-gp concentration 2 uM, P-gp inhibitor Elacidar
dengue virus type 2 [8] = experiment: as §2, with “cells (cotreated with P-gp inhibitor, Elacridar).” for “cells.”; type: organism-based, Chlorocebus sabaeus, VeroE6/TMPRSS2; settings: for EC90: P-gp concentration 2 uM, P-gp inhibitor Elacidar

COc1cc(N[C@@H](C(=O)c2c[nH]c3ccc(OC(F)(F)F)cc23)c2ccc(Cl)cc2OC)cc(S(C)(=O)=O)c1
EC90 (dengue virus type 2 [1]; Baseline response 0 %, Hill slope 0.131, Maximum measured 1.754 %, Maximum response 100 %, Minimum measured 0.009 %, R squared 0.032): < 391 nM | EC90 (dengue virus type 2 [1]; Baseline response 0 %, Hill slope 0.182, Maximum measured 0.608 %, Maximum response 100 %, Minimum measured 0.03 %, R squared 0.035): < 391 nM | EC90 (dengue virus type 2 [1]; Baseline response 0 %, Hill slope 0.299, Maximum measured 0.369 %, Maximum response 100 %, Minimum measured 0.02 %, R squared 0.601): < 391 nM | EC90 (dengue virus type 2 [1]; Baseline response 0 %, Hill slope 0.306, Maximum measured 1.238 %, Maximum response 100 %, Minimum measured 0.01 %, R squared 0.111): < 391 nM | EC90 (dengue virus type 2 [1]; Baseline response 0 %, Hill slope 1.135, Maximum measured 0.49 %, Maximum response 100 %, Minimum measured 0.132 %, R squared 0.538): < 391 nM | EC50 (dengue virus type 2 [1]; Dengue virus, Vero C1008): < 391 nM | EC90 (dengue virus type 2 [1]; Dengue virus, Vero C1008, Maximum measured 0.33 %, Minimum measured 0.072 %): < 391 nM | EC90 (dengue virus type 2 [1]; Dengue virus, Vero C1008, Baseline response 0 %, Hill slope 0.447, Maximum measured 0.846 %, Maximum response 100 %, Minimum measured 0.033 %, R squared 0.302): < 391 nM | EC50 (Zika virus [2]): 726 nM | EC90 (Zika virus [2]; Baseline response 0 %, Hill slope 17.55, Maximum measured 78.36 %, Maximum response 100 %, Minimum measured -4.751 %, P-gp concentration 500 nM, R squared 0.965, P-gp inhibitor CP100356): > 781 nM | EC50 (dengue virus type 2 [3]; VeroE6/TMPRSS2): < 5 nM | EC90 (dengue virus type 2 [3]; VeroE6/TMPRSS2, Baseline response 0 %, Hill slope -0.076, Maximum measured 4.343 %, Maximum response 100 %, Minimum measured 1.659 %, R squared 0.062): < 5 nM | EC50 (dengue virus type 2 [4]): < 10 nM | EC50 (Zika virus [5]): 546 nM | EC90 (Zika virus [5]): 2790 nM | EC90 (Zika virus [6]; Vero C1008, Baseline response 0 %, Hill slope 9.978, Maximum measured 3.488 %, Maximum response 100 %, Minimum measured -3.611 %, R squared 0.038): > 50000 nM | EC90 (Zika virus [6]; Vero C1008, Baseline response 0 %, Hill slope 52.791, Maximum measured 104.354 %, Maximum response 100 %, Minimum measured 0.394 %, R squared 0.996): 452 nM | EC90 (Zika virus [6]; Vero C1008, Baseline response 0 %, Hill slope -0.752, Maximum measured 14.519 %, Maximum response 100 %, Minimum measured -4.788 %, R squared 0.067): < 391 nM | EC90 (Zika virus [6]; Vero C1008, Baseline response 0 %, Hill slope -0.757, Maximum measured 74.834 %, Maximum response 100 %, Minimum measured -5.889 %, R squared 0.129): < 391 nM | EC90 (Zika virus [6]; Vero C1008, Baseline response 0 %, Hill slope -0.835, Maximum measured 99.922 %, Maximum response 100 %, Minimum measured -10.847 %, R squared 0.106): < 391 nM | EC90 (Zika virus [6]; Vero C1008, Maximum measured 8.337 %, Minimum measured -6.427 %): > 50000 nM | EC90 (Zika virus [6]; Vero C1008, Baseline response 0 %, EC90 CI (lower) 10.077 uM, EC90 CI (upper) 13.839 uM, Hill slope 6.588, Maximum measured 92.835 %, Maximum response 100 %, Minimum measured -3.07 %, R squared 0.987): 11800 nM | EC90 (Zika virus [7]; EC90 CI (lower) 0.002 uM, EC90 CI (upper) 0.172 uM, Hill slope -0.792, Maximum measured 161.955 %, Minimum measured 5.205 %, R squared 0.677): 4830 nM | EC90 (Zika virus [7]; EC90 CI (lower) 0.029 uM, EC90 CI (upper) 0.11 uM, Hill slope -0.824, Maximum measured 111.518 %, Minimum measured 7.6 %, R squared 0.806): > 10000 nM | EC90 (Zika virus [7]; EC90 CI (lower) 0.389 uM, EC90 CI (upper) 1.092 uM, Hill slope -2.761, Maximum measured 123.481 %, Minimum measured 14.219 %, R squared 0.888): 3200 nM | EC90 (Zika virus [7]; Hill slope -12.116, Maximum measured 127.26 %, Minimum measured 45.283 %, R squared 0.53): > 3330 nM | EC90 (Zika virus [7]; Hill slope -12.74, Maximum measured 124.12 %, Minimum measured 2.277 %, R squared 0.501): 3790 nM | EC90 (Zika virus [7]; Hill slope -15.757, Maximum measured 117.305 %, Minimum measured 4.138 %, R squared 0.906): 1100 nM | EC90 (Zika virus [7]; Hill slope -17.776, Maximum measured 116.903 %, Minimum measured 2.275 %, R squared 0.837): 3170 nM | EC90 (Zika virus [7]; Hill slope -18.67, Maximum measured 119.05 %, Minimum measured 1.241 %, R squared 0.846): 3280 nM | EC90 (dengue virus type 2 [8]; Baseline response 0 %, EC90 CI (lower) 0.626 uM, EC90 CI (upper) 1511.53 uM, Hill slope 3.662, Maximum measured 12.805 %, Maximum response 100 %, Minimum measured 0.049 %, R squared 0.652): 9.27 µM | EC90 (dengue virus type 2 [8]; Baseline response 0 %, EC90 CI (lower) […] uM, EC90 CI (upper) […] uM, Hill slope -1.863, Maximum measured 115.571 %, Maximum response 100 %, Minimum measured 6.648 %, R squared 0.785): 0.061 µM | EC90 (dengue virus type 2 [8]; Baseline response 0 %, Hill slope 1.613, Maximum measured 7.031 %, Maximum response 100 %, Minimum measured 0.609 %, R squared 0.305): < 0.005 µM | EC90 (dengue virus type 2 [8]; Baseline response 0 %, Hill slope 2.619, Maximum measured 1.603 %, Maximum response 100 %, Minimum measured 0.015 %, R squared 0.655): < 0.005 µM | EC90 (dengue virus type 2 [8]; Baseline response 0 %, Hill slope 2.624, Maximum measured 9.128 %, Maximum response 100 %, Minimum measured 0.482 %, R squared 0.941): < 0.005 µM | EC90 (dengue virus type 2 [8]; Baseline response 0 %, Hill slope -0.067, Maximum measured 1.374 %, Maximum response 100 %, Minimum measured 0.665 %, R squared 0.06): < 0.005 µM | EC90 (dengue virus type 2 [8]; Baseline response 0 %, Hill slope -0.101, Maximum measured 7.568 %, Maximum response 100 %, Minimum measured 3.136 %, R squared 0.228): < 0.005 µM | EC90 (dengue virus type 2 [8]; Dengue virus, VeroE6/TMPRSS2, Maximum measured 1.671 %, Minimum measured 0.643 %): < 0.005 µM | EC50 (dengue virus type 2 [8]; veroe6/tmprss2): < 5 nM and 19 nM
